Experimental data published in US20250064733A1, “USE OF PEG-BASED INTERPOLYMER COMPLEXES FOR IMPROVED SOLUBILIZATION F BCS CLASS II DRUGS” (Dow Global Technologies LLC, priority 2022, published 2025).

Assay: Apparent aqueous solubility of drug in 1% polymer solution (30 min standing, centrifugation, HPLC of supernatant)
Assay type: physicochemical
Conditions: water without polymer; reference value for the increase; read-out: aqueous probucol solubility
Protocol: The following materials are used. The polyacrylic acid (PAA) has a molecular weight of about 1800, the polyethylene glycol used has either a molecular weight of 4000 or 8000 (as indicated in Table I below). The API chosen is either Probucol (>98% purity) or Ketoprofen (>98% purity). Each polymer or polymer combination shown in Table 1 is added to water in an amount to form 1% polymer solutions. Concentrated API solutions in methanol are prepared by adding 0.2 grams of drug to 10 ml of methanol (20 g/L of drug in methanol).
For each example in Table 1, 912 μl of the indicated polymer solution is transferred into individual vials. Then, 48 μl of drug solution in methanol is added to the polymer solution. These mixtures are agitated via three cycles of aspiration and dispensing using the EVO 200 pipettes. […]
The solubilized drug concentration in each taken aliquot was determined by reverse phase high-performance liquid chromatography (HPLC) analysis. […]
The drug concentration is determined from the measured elution profile by using a linear calibration curve for the respective drug, which was generated by determining the least squares fit of a straight line that described the relation between the concentration of four solutions of known concentrations (about 250, 500, 750, and 1000 mg/L) and the respective peak area integral after injection of 2 μL of each drug in methanol. […]

Work on `CC(C)(Sc1cc(C(C)(C)C)c(O)c(C(C)(C)C)c1)Sc1cc(C(C)(C)C)c(O)c(C(C)(C)C)c1` [control, Probucol] yielded a solubility at 30 min of 0.042 µg/mL.
